Experimental data: patent US20100087534A1, “Use of a Photosensitizing Agent in the Treatment or Prevention of an Inflammation-Associated Disorder in the Gastrointestinal Tract of a Mammal” (priority 2005, published 2010)

Tested on: SCID mice with TH1-mediated Crohn-like colitis after transfer of CD4+CD45RBhigh T-cells
Experiment: Endoscopic index of colitis severity (EICS) after low dose PDT in transfer colitis (Example 2)
Assay type: in vivo
Source text: Since in example 1 only 55% of the mice developed colitis, Applicants have injected 4×10^5 cells CD4+CD45RB^high intravenously into 9.5 weeks old SCID mice in the following second set of SCID mice.
Evolution of colitis in SCID mice was monitored every week by colonoscopic investigation after induction. Mice with moderately inflamed colons [endoscopic index of colitis severity (EICS) index 4-8] or marked inflamed colons (EICS 9-13) were randomly assigned to either a <<low dose>> PDT group or no treatment group (disease control group). Unmanipulated age-matched SCID mice served as negative controls.
PDT was performed with a photosensitizing agent (δ-ALA) dose of 15 mg/kg, administered 3 hours before the illumination with the energy dose of 10 J/cm^2 per gastrointestinal tract tissue.
The illumination time was 100 s, the wavelength 635 nm.
After completing the experiments with 15 mg/kg δ-ALA and 10 J/cm^2, the Applicants evaluated whether an energy illumination energy of 20 or 2 J/cm^2 would provide an equivalent or better effect on colitis. Furthermore, the Applicants sought to determine whether PDT treatment could be repeated at short term and whether this re-treatment would have a beneficial effect on colitis too. To this end, the Applicants performed another set of experiment with marked inflamed mice in which half of the PDT treated mice (15 mg/kg S-ALA and 10 J/cm^2) were subjected to a second identical low dose PDT treatment at the time of the re-apparition of colitis symptoms, namely one week after the first PDT treatment.
Mice were monitored by colonoscopy at day 3 and weeks 1, 2, 3 and 4 post PDT treatment. In addition to parameters investigated in example 1, CD4 immunostaining and apoptosis detection were performed.
All statistical analyses were performed using the Prism version 4.0c software from GraphPad Software (San Diego, Calif.). The unpaired two-tail Mann-Whitney test was usually applied, unless the numbers of mice in test groups were too small to perform this test (<5 mice in both test groups) and the unpaired two-tail t test was thus applied. Significance limit was set at a 2-tailed P value≦0.05.

Compound: NCC(=O)CCC(=O)O [δ-ALA, 5-aminolevulinic acid]
- EICS (marked inflamed mice (mean EICS 10.4±0.2 before), 15 mg/kg δ-ALA, 10 J/cm^2, 3 days after PDT, disease control 10.7±0.6, P<0.0001): 7.3±0.3
- EICS (marked inflamed mice, 15 mg/kg δ-ALA, 2 J/cm^2, 3 days after PDT, disease control 10.7±0.6, P=0.0271): 8.4±0.5
- EICS versus disease control group (marked inflamed mice, 15 mg/kg δ-ALA, 10 J/cm^2, up to 4 weeks after PDT): remained significantly lower than the one of the disease control group mice
- effect on colitis (EICS) versus disease control group (marked inflamed mice, 15 mg/kg δ-ALA, 20 J/cm^2, any time point): did not induce any significant beneficial effect
- EICS (marked inflamed mice, one single PDT treatment, time point 1 week after second PDT of comparison group): 9.8±0.5
- EICS (marked inflamed mice, one single PDT treatment, time point 2 weeks after second PDT of comparison group): 9.8±0.6
- EICS (marked inflamed mice, two PDT treatments (15 mg/kg, 10 J/cm^2) one week apart, 1 week after second PDT): 7.3±0.9
- EICS (marked inflamed mice, two PDT treatments one week apart, 2 weeks after second PDT): 7.33±0.3
- EICS versus disease control group (moderately inflamed mice, since week 2 post PDT): appeared no more significantly different from the one of the disease control group
